Laboratory results: patent US8859587B2, “(2E)-3-phenyl-N-[2,2,2-Trifluoro-1-[[8-quinolineamino)thiomethyl]amino]ethyl]-2-acrylamide and pharmaceutical uses thereof” (Chinese PLA General Hospital, priority 2010, dated 2014)
Several values for one entry are separate records, joined by “and”; a condition that tells them apart may be missing. Identical values can stand only once. Marks after values point to notes of the source that are not given here.

What was measured:
Assay type in all cases: cell-based, Wistar rats
[1] = test system: cardiac muscle cells induced by Tunicamycin (TM); assay: Survival rate of TM-induced cardiac muscle cells detected by MTT method; settings: TM 5 μg/ml alone, MTT
Procedure: The separation and culture of cardiomyocyte refer to the method of differential adhesion separation (Kreider, A. Messing, H. Doan, S. U. Kim, R. P. Lisak and D. E. Pleasure, Enrichment of Schwann cell cultures from neonatal rat sciatic nerve by differential adhesion, Brain Res 2 (1981), pp. 433-444.), Wistar neonate rats newly born within 24 h were used to obtain primary cardiac muscle cells.
The separated cardiac muscle cells were inoculated in an amount of 10^4 cells per well to a 96-well plate, and the volume of each well was 100 μl (marginal wells were filled with sterile PBS). […] After continuous inoculation, each well was added with 20 μl of MTT solution (5 mg/ml, formulated with PBS (pH=7.4), i.e., 0.5% MTT), and the cultivation was continued for 4 h. After the end of cultivation, culture medium in wells was carefully sucked out. Each well was added with 150 μl of DMSO, shaken at a low speed in a shaking table for 10 min, so that the crystal was sufficiently dissolved. The optical density (OD) value of each well was measured at wavelength of 490 nm by enzyme-linked immunoassay instrument, and each well was repeatedly measured for 3 times and the results were recorded. The cell survival rate at each time point was calculated according to: […], and a cell growth curve was drawn by using time as abscissa and optical density as ordinate.

[2] = test system: caspase-12 and cleaved caspase-12; assay: Western blot of caspase-12 and cleaved caspase-12 in TM-induced cardiac muscle cells; settings: TM 5 μg/ml induction alone
Procedure: (12000 rpm×10 min), collected supernatant. Nitrocellulose membrane was dipped in a transferring buffer for 15-20 min in advance. Sampled in 50 μg protein/lane, subjected to 10% polyacrylamide gel SDS-PAGE electrophoretic separation, the gel was then tiled in electrotransferring clamp, in which sponge, filter paper, gel, nitrocellulose membrane, filter paper and sponge were mounted from negative electrode to positive electrode in order. Constant current 350 mA, electrotransferred for 45 min. Electrotransferring membrane to […], the nitrocellulose membrane was taken out, the membrane was washed with TBST for 2 min, sealed with 5% defatted milk powder at room temperature for 1 h, added with first antibody (1:1000) and incubated at 4° C. overnight, the membrane was washed with TBST, 3 times×5 min, then […] second antibody was added, incubated at room temperature for 1 h, washed with TBST, 3 times×5 min, soaked separately with TSM1 and TSM2 for 5 min and 10 min, developed with chromogenic substrates 6.6 μl NBT and 3.3 μl BCIP dissolved in 1 ml of TSM2, after bonds become clear, the reaction was terminated by washing with water. After the end of development, the records were stored by scanning or taking photos.

[3] = test system: primary cardiac muscle cells induced by TM; assay: Cardiomyocyte apoptosis induced by TM, AnnexinV-FITC flow cytometer; settings: TM 5 μg/ml alone, 24 h
Procedure: (§1) The primary cardiac muscle cells obtained by the method according to the culture method of primary cardiac muscle cells of Example 1 were added with tunicamycin (TM) on the 4th day to perform interference test. The cells were randomly divided into 5 groups: solvent control group (DMSO), TM interference group (5 μg/ml), Compound of Formula I+TM interference group (10 μM+5 μg/ml), Compound of Formula I interference group ([…]+5 μg/ml), Compound of Formula I interference group ([…]+5 μg/ml).
it is 24 h after drug interference, the cells were treated by the method of AnnexinV-FITC apoptosis kit, and the apoptosis was detected within 1 h by using a flow cytometer (BD ACScalibur, US Becton-Dickinson Company). For each sample, 14000 cells were collected and analyzed, the test was repeated for 3 times, and the average value was used as a result.

[4] = test system: primary cardiac muscle cells induced by TM; assay: Cardiomyocyte apoptosis induced by TM, TUNEL detection; settings: TM 5 μg/mL alone, 24 h, n = 6
Procedure: as §1
It was 24 h after drug interference, the apoptotic cells were detected by terminal deoxynucleotidyl transferase-mediated biotinylated UTP nick end labeling (TUNEL) method, and the cells were treated according to the specification of kit. The cells treated with 0.1 mg/ml DNase I and growing on a glass slide were used as positive control. 5 or more visual fields were randomly selected under light microscope, the apoptotic cells (brown yellow granules seen in nucleus) among the cells were counted. Apoptosis rat=(number of positively stained nuclei/number of all nuclei)×100%.

For Tunicamycin [TM, reference compound], the “Cell survival rate (%)” value [1] was 58.8699 ± 10.7785 %, the “expression of Cleaved caspase-12” value [2] was “obviously expressed” and the “Cardiomyocyte apoptosis rate detected by flow cytometer (%)” value [3] was 29.98% and 29.98 ± 1.22^a %. For the same substance, the “TUNEL detection (%) cardiomyocyte apoptosis rate” value [4] was 30.84 ± 1.26 ^a %.
